Holding throughout (type): in vitro ADME
Data set [1] can be described thus: Substrate loss and nFFA formation over time in human liver microsomes. From the text:
Microsomes from a mixed‐gender pool of 200 non‐transplantable human livers (Sekisui XenoTech, LLC, Kansas City, KS) were characterized as described.[20], [21] Human recombinant CYP450s (rCYP450s) and control membranes from Escherichia coli transfected with empty expression plasmid or plasmid expressing nicotinamide adenine dinucleotide phosphate (hydrogen) (NADPH)‐CYP450 oxidoreductase without CYP450 enzymes were obtained from Cypex, Ltd. Metabolite identification and stability studies used human liver S9 fractions (containing both microsomal and cytosolic fractions of the cell) from pooled human liver (n = 50) and intestine (n = 10), pooled canine liver (n = 8) and intestine (n = 7), and pooled rat liver (n = 454) and intestine (n = 199). All rCYP450 enzymes except rCYP1A2 and rCYP2D6 were expressed with cytochrome b5.
(§1) For FFA and nFFA reaction phenotyping experiments, LC‐MS/MS experiments were performed using an API 4000 QTRAP or QTRAP 5500 mass spectrometer (SCIEX) with positive electrospray ionization. Chromatography was performed using an Atlantis dC18 analytical column (100 × 2.1 mm, 5 µm; Waters Corporation). Mobile phases were 0.2% v/v formic acid in water and 0.2% v/v formic acid in methanol. FFA and nFFA were eluted at a flow rate of 0.5 mL/min with a linear gradient of 40%−95% methanol from 0.20−2.1 min. The mass transitions monitored were 232.0>109.0 for FFA, 204.0>159.0 for nFFA, 348.0>330.0 for 1’‐hydroxymidazolam‐d4 internal standard (FFA reaction phenotyping), and 262.0>244.0 for hydroxybupropion‐d6 internal standard (nFFA reaction phenotyping). Analyst Instrument Control and Data Processing software (v. 1.6.1) was used for collecting and integrating data (SCIEX). Calibration curves ranging from 1.25 µM−0.01 µM were used to quantify nFFA. Relative quantitation was used to approximate the amount of FFA test material used.
The line of best‐fit for calibration standards was calculated by weighted (1/x) linear regression based on peak‐area ratios of analyte to the internal standard using Analyst Instrument Control and Data Processing software (version 1.6.1; SCIEX). Mean analyte peak‐area ratio at each time point was normalized to controls at t = 0 min (100%).

A further data set concerns the target T1, rCYP2C19 (Homo sapiens, UniProt P33261).
T1 construct: purchased Cypex, Ltd; host or cells: Escherichia coli
The experiment in a line: Reaction phenotyping with rCYP2C19. The following applies: rCYP2C19, 60 min. As for the experimental part: as §1
(§2) Methods used to evaluate the role of CYP450s in the metabolism of FFA have been described.[22], [23], [24] […] Supernatant fractions were analyzed by LC‐MS/MS.

A further data set addresses T2, rCYP2D6 (Homo sapiens, UniProt P10635).
T2 construct: purchased Cypex, Ltd; host or cells: Escherichia coli
The experiment in a line: Reaction phenotyping with rCYP2D6. The following applies: rCYP2D6, 60 min. The procedure:
as §1, §2

Another data set has as its target T3, rCYP2B6 (Homo sapiens, UniProt P20813).
T3 construct: purchased Cypex, Ltd; host or cells: Escherichia coli
T3 sequence (P20813 1-491): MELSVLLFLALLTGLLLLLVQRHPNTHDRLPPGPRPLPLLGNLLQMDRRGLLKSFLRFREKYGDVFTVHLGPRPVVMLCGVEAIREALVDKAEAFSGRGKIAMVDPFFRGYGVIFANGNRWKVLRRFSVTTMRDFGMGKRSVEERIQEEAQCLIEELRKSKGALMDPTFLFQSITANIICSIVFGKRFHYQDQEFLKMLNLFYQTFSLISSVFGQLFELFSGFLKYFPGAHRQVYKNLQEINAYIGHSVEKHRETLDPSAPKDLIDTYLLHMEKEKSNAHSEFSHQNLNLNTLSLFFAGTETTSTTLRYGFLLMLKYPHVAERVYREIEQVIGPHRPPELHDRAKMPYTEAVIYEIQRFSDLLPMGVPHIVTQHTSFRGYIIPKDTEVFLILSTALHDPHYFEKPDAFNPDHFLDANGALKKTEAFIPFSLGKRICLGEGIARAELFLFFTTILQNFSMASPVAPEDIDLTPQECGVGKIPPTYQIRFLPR
The experiment in a line: Reaction phenotyping with rCYP2B6. The procedure: as §1, §2

T2 sequence (P10635 whole entry): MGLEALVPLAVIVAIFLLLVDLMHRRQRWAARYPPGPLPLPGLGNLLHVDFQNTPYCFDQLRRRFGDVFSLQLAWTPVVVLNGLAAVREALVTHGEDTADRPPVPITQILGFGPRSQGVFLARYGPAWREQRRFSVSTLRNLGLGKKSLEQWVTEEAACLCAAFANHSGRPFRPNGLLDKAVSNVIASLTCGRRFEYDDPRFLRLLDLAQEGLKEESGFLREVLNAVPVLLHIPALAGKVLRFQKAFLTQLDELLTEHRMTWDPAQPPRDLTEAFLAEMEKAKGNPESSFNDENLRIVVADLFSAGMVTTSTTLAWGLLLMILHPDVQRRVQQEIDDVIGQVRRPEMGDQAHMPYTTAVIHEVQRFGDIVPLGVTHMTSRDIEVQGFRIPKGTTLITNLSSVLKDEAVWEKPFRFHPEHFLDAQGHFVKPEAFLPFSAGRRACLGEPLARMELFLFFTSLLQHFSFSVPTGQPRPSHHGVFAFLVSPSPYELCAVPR
T1 sequence (P33261 whole entry): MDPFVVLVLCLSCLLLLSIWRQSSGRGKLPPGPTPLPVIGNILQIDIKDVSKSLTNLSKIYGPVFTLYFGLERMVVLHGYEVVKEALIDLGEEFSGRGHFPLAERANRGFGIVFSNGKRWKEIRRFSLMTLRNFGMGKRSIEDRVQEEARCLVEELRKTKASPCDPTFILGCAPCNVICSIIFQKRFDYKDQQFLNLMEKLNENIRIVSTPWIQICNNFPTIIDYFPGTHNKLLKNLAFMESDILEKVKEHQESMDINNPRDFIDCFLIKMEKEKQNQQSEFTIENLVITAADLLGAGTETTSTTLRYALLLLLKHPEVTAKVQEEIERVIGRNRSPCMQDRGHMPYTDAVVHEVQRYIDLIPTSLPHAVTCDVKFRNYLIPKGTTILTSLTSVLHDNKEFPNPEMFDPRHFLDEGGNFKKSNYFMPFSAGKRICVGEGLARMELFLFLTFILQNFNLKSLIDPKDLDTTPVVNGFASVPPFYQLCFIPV

The molecule `CCNC(C)Cc1cccc(C(F)(F)F)c1` (racemic) [FFA, (RS)‐ethyl (α‐methyl‐3‐trifluoromethylphenethyl)amine] yielded an FFA substrate loss in data set [1] (human liver microsomes 1 mg protein/mL, 1−100 µM FFA, all concentrations and times tested) not above 7.7%. Besides, in data set [1] (human liver microsomes, FFA, absence of NADPH), the “substrate remaining in the absence of NADPH” value is ~ 100%. The results for the “Disappearance of FFA” value on rCYP2C19 (1 μM FFA) and at rCYP2D6 (1 μM FFA) were 49% and 97%, respectively. Besides, the FFA loss on rCYP2C19 (10 μM FFA) is 50%; on rCYP2D6 (10 μM FFA) it was 59%; at rCYP2B6 (10 μM FFA, rCYP2B6, 60 min), 21%. On rCYP2B6 (1 µM FFA, rCYP2B6), this molecule yielded an FFA disappearance of 10%.

With `CC(N)Cc1cccc(C(F)(F)F)c1.Cl` (stereo not shown) [nFFA, 1‐(3‐(trifluoromethyl)phenyl)propan‐2‐amine hydrochloride], the “nFFA substrate loss in the absence of microsomal protein” value in data set [1] (control without microsomal protein) is recorded as “no substrate loss detected”. Also, the “nFFA substrate loss in the absence of the NADPH‐generating system” value in data set [1] (human liver microsomes, no NADPH-generating system) stood at 1.2%.

The values are drawn from paper PMC9124820, “In vitro evaluation of fenfluramine and norfenfluramine as victims of drug interactions” (Pharmacology Research & Perspectives, 2022).
